This is an account of results in patent publication US7875647B2, “Heteroaryl-pyrazole derivatives as cannabinoid CB1 receptor antagonists” (Green Cross Corporation, priority 2006, dated 2011).

pIC50: −log10 of the molar value.

T1 sequence (P20272 whole entry): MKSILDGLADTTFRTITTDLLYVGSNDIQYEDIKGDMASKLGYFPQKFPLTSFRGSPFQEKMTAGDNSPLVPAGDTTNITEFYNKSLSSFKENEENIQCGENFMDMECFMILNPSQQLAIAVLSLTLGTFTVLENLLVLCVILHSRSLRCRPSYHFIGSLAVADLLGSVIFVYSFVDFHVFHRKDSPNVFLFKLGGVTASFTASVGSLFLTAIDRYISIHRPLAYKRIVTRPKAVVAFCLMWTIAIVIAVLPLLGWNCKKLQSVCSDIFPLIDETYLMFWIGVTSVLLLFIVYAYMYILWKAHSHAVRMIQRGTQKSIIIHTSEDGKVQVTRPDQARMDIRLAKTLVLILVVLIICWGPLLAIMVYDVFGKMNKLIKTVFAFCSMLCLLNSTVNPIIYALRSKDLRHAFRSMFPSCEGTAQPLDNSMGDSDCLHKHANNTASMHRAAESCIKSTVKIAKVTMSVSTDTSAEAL

One assay addresses T1, Cannabinoid-1 receptor (CB1R) (Rattus norvegicus, UniProt P20272).
T1 construct: The tissue obtained from the brain of SD rats was homogenized; from tissue; host or cells: brain of SD rats (membrane pellet of the homogenate)
Nature of the assay: Cannabinoid-1 receptor (CB1R) binding affinity assay ([3H]CP-55940, rat CB-1 receptor binding protocol). The note with it: IC50(nM), brain tissue of SD rats, [3H]CP-55940, 30° C. 60 min.
The compound `CCc1c(-c2nnc(C3(c4ccc(Cl)cc4)CCC3)s2)nn(-c2ccc(Cl)cc2Cl)c1-c1ccc(Cl)cc1` [Example 483, 2-(5-(4-chlorophenyl)-1-(2,4-dichlorophenyl)-4-ethyl-1H-pyrazol-3-yl)-5-(1-(4-chlorophenyl)cyclobutyl)-1,3,4-thiadiazole] had an IC50 of 2.32 nM.

Still in this assay, the particulars now being: brain tissue of SD rats, [3H]CP-55940, 30° C. 60 min; read-out: IC50.
`CCc1c(-c2nnc(C3(C)CC3)s2)nn(-c2ccc(Cl)cc2Cl)c1-c1ccc(Br)cc1` [Example 470, 2-(5-(4-bromophenyl)-1-(2,4-dichlorophenyl)-4-ethyl-1H-pyrazol-3-yl)-5-(1-methylcyclopropyl)-1,3,4-thiadiazole]: the pIC50 is 7.93.
On the same count and under the same terms, for `Cc1c(-c2nnc(C3(Cc4ccc(Cl)cc4)CC3)s2)nn(-c2ccc(Cl)cc2Cl)c1-c1ccc(Cl)cc1` [Example 471, 2-(1-(4-chlorobenzyl)cyclopropyl)-5-(5-(4-chlorophenyl)-1-(2,4-dichlorophenyl)-4-methyl-1H-pyrazol-3-yl)-1,3,4-thiadiazole] the value was 7.57.
With `CCc1c(-c2nnc(C3(Cc4ccc(Cl)cc4)CC3)s2)nn(-c2ccc(Cl)cc2Cl)c1-c1ccc(Br)cc1` [Example 472, 2-(1-(4-chlorobenzyl)cyclopropyl)-5-(5-(4-bromophenyl)-1-(2,4-dichlorophenyl)-4-ethyl-1H-pyrazol-3-yl)-1,3,4-thiadiazole], the pIC50 is 8.18.
Turning to `CCc1c(-c2nnc(C3(c4ccc(OC)cc4)CC3)s2)nn(-c2ccc(Cl)cc2Cl)c1-c1ccc(Br)cc1` [Example 473, 2-(5-(4-bromophenyl)-1-(2,4-dichlorophenyl)-4-ethyl-1H-pyrazol-3-yl)-5-(1-(4-methoxyphenyl)cyclopropyl)-1,3,4-thiadiazole], the pIC50 is 8.34.
Take `CCc1c(-c2nnc(C3(c4ccc(C)cc4)CC3)s2)nn(-c2ccc(Cl)cc2Cl)c1-c1ccc(Br)cc1` [Example 474, 2-(5-(4-bromophenyl)-1-(2,4-dichlorophenyl)-4-ethyl-1H-pyrazol-3-yl)-5-(1-p-tolylcyclopropyl)-1,3,4-thiadiazole]: the pIC50 is 7.73.
In the case of `CCc1c(-c2nnc(C3(c4ccccc4)CC3)s2)nn(-c2ccc(Cl)cc2Cl)c1-c1ccc(Br)cc1` [Example 475, 2-(5-(4-bromophenyl)-1-(2,4-dichlorophenyl)-4-ethyl-1H-pyrazol-3-yl)-5-(1-phenylcyclopropyl)-1,3,4-thiadiazole], the pIC50 is 8.06.
On to `CCc1c(-c2nnc(C3(c4ccc(Cl)cc4)CC3)s2)nn(-c2ccc(Cl)cc2Cl)c1-c1ccc(Br)cc1` [Example 477, 2-(5-(4-bromophenyl)-1-(2,4-dichlorophenyl)-4-ethyl-1H-pyrazol-3-yl)-5-(1-(4-chlorophenyl)cyclopropyl)-1,3,4-thiadiazole], for which the pIC50 was 8.39.
On the same count and under the same terms, for `CCc1c(-c2nnc(C3(c4ccc(Cl)cc4Cl)CC3)s2)nn(-c2ccc(Cl)cc2Cl)c1-c1ccc(Br)cc1` [Example 478, 2-(5-(4-bromophenyl)-1-(2,4-dichlorophenyl)-4-ethyl-1H-pyrazol-3-yl)-5-(1-(2,4-dichlorophenyl)cyclopropyl)-1,3,4-thiadiazole] the value was 8.19; for `CCc1c(-c2nnc(C3(c4ccccc4)CC3)s2)nn(-c2ccc(Cl)cc2Cl)c1-c1ccc(Cl)cc1` [Example 479, 2-(5-(4-chlorophenyl)-1-(2,4-dichlorophenyl)-4-ethyl-1H-pyrazol-3-yl)-5-(1-phenylcyclopropyl)-1,3,4-thiadiazole], 8.18.
With `CCc1c(-c2nnc(C3(c4ccc(C)cc4)CC3)s2)nn(-c2ccc(Cl)cc2Cl)c1-c1ccc(Cl)cc1` [Example 480, 2-(5-(4-chlorophenyl)-1-(2,4-dichlorophenyl)-4-ethyl-1H-pyrazol-3-yl)-5-(1-p-tolylcyclopropyl)-1,3,4-thiadiazole], the pIC50 was 8.29.
As for `CCc1c(-c2nnc(C3(c4ccc(OC)cc4)CC3)s2)nn(-c2ccc(Cl)cc2Cl)c1-c1ccc(Cl)cc1` [Example 481, 2-(5-(4-chlorophenyl)-1-(2,4-dichlorophenyl)-4-ethyl-1H-pyrazol-3-yl)-5-(1-(4-methoxyphenyl)cyclopropyl)-1,3,4-thiadiazole], the pIC50 is 8.12.
As for `CCc1c(-c2nnc(C3(c4ccc(Cl)cc4Cl)CC3)s2)nn(-c2ccc(Cl)cc2Cl)c1-c1ccc(Cl)cc1` [Example 482, 2-(5-(4-chlorophenyl)-1-(2,4-dichlorophenyl)-4-ethyl-1H-pyrazol-3-yl)-5-(1-(2,4-dichlorophenyl)cyclopropyl)-1,3,4-thiadiazole], the pIC50 is 8.40.
With `CCc1c(-c2nnc(C3(C)CC3)s2)nn(-c2ccc(Cl)cc2Cl)c1-c1ccc(Cl)cc1` [Example 484, 2-(5-(4-chlorophenyl)-1-(2,4-dichlorophenyl)-4-ethyl-1H-pyrazol-3-yl)-5-(1-methylcyclopropyl)-1,3,4-thiadiazole], the pIC50 was 7.50.
For the compound `CCc1c(-c2nnc(C3(c4ccccc4)CCCC3)s2)nn(-c2ccc(Cl)cc2Cl)c1-c1ccc(Br)cc1` [Example 485, 2-(5-(4-bromophenyl)-1-(2,4-dichlorophenyl)-4-ethyl-1H-pyrazol-3-yl)-5-(1-phenylcyclopentyl)-1,3,4-thiadiazole], the pIC50 was 7.48.
Same read-out and setting: the result for `CCc1c(-c2nnc(C3(c4ccc(Cl)cc4)CCCC3)s2)nn(-c2ccc(Cl)cc2Cl)c1-c1ccc(Br)cc1` [Example 486, 2-(5-(4-bromophenyl)-1-(2,4-dichlorophenyl)-4-ethyl-1H-pyrazol-3-yl)-5-(1-(4-chlorophenyl)cyclopentyl)-1,3,4-thiadiazole] reads 7.64; that for `Cc1c(-c2nnc(C3(c4ccccc4)CC3)s2)nn(-c2ccc(Cl)cc2Cl)c1-c1ccc(Cl)cc1` [Example 487, 2-(5-(4-chlorophenyl)-1-(2,4-dichlorophenyl)-4-methyl-1H-pyrazol-3-yl)-5-(1-phenylcyclopropyl)-1,3,4-thiadiazole], 8.02; that for `CCC1(c2nnc(-c3nn(-c4ccc(Cl)cc4Cl)c(-c4ccc(Cl)cc4)c3C)s2)CC1` [Example 488, 2-(5-(4-chlorophenyl)-1-(2,4-dichlorophenyl)-4-methyl-1H-pyrazol-3-yl)-5-(1-ethylcyclopropyl)-1,3,4-thiadiazole], 6.97.
Take `CCc1c(-c2nnc(C3(CC)CC3)s2)nn(-c2ccc(Cl)cc2Cl)c1-c1ccc(Cl)cc1` [Example 489, 2-(5-(4-chlorophenyl)-1-(2,4-dichlorophenyl)-4-ethyl-1H-pyrazol-3-yl)-5-(1-ethylcyclopropyl)-1,3,4-thiadiazole]: the negative-log IC50 (pIC50) is 7.70.
On the same count and under the same terms, the result for `CCc1c(-c2nnc(C3(CC)CC3)s2)nn(-c2ccc(Cl)cc2Cl)c1-c1ccc(Br)cc1` [Example 490, 2-(5-(4-bromophenyl)-1-(2,4-dichlorophenyl)-4-ethyl-1H-pyrazol-3-yl)-5-(1-ethylcyclopropyl)-1,3,4-thiadiazole] reads 7.70; that for `CCc1c(-c2nnc(C3(C#N)CC3)s2)nn(-c2ccc(Cl)cc2Cl)c1-c1ccc(Cl)cc1` [Example 491, 1-(5-(5-(4-chlorophenyl)-1-(2,4-dichlorophenyl)-4-ethyl-1H-pyrazol-3-yl)-1,3,4-thiadiazol-2-yl)cyclopropanecarbonitrile], 6.84; that for `CCc1c(-c2nnc(C3(c4ccc(F)cc4)CC3)s2)nn(-c2ccc(Cl)cc2Cl)c1-c1ccc(Br)cc1` [Example 492, 2-(5-(4-bromophenyl)-1-(2,4-dichlorophenyl)-4-ethyl-1H-pyrazol-3-yl)-5-(1-(4-fluorophenyl)cyclopropyl)-1,3,4-thiadiazole], 8.65.
Same read-out and setting: the result for `CCc1c(-c2nnc(C3(c4cccc(Cl)c4)CC3)s2)nn(-c2ccc(Cl)cc2Cl)c1-c1ccc(Cl)cc1` [Example 494, 2-(5-(4-chlorophenyl)-1-(2,4-dichlorophenyl)-4-ethyl-1H-pyrazol-3-yl)-5-(1-(3-chlorophenyl)cyclopropyl)-1,3,4-thiadiazole] reads 8.19; that for `CCc1c(-c2nnc(C3(c4cccc(Cl)c4)CC3)s2)nn(-c2ccc(Cl)cc2Cl)c1-c1ccc(Br)cc1` [Example 495, 2-(5-(4-bromophenyl)-1-(2,4-dichlorophenyl)-4-ethyl-1H-pyrazol-3-yl)-5-(1-(3-chlorophenyl)cyclopropyl)-1,3,4-thiadiazole], 8.21; that for `Cc1c(-c2nnc(C3(c4ccc(F)cc4)CC3)s2)nn(-c2ccc(Cl)cc2Cl)c1-c1ccc(Cl)cc1` [Example 496, 2-(5-(4-chlorophenyl)-1-(2,4-dichlorophenyl)-4-methyl-1H-pyrazol-3-yl)-5-(1-(4-fluorophenyl)cyclopropyl)-1,3,4-thiadiazole], 7.31.
Same read-out and setting: the result for `CC(C)c1c(-c2nnc(C3(C(F)(F)F)CC3)s2)nn(-c2ccc(Cl)cc2Cl)c1-c1ccc(Cl)cc1` [Example 498, 2-(5-(4-chlorophenyl)-1-(2,4-dichlorophenyl)-4-isopropyl-1H-pyrazol-3-yl)-5-(1-(trifluoromethyl)cyclopropyl)-1,3,4-thiadiazole] reads 7.94; that for `CCCc1c(-c2nnc(C3(C(F)(F)F)CC3)s2)nn(-c2ccc(Cl)cc2Cl)c1-c1ccc(Cl)cc1` [Example 499, 2-(5-(4-chlorophenyl)-1-(2,4-dichlorophenyl)-4-propyl-1H-pyrazol-3-yl)-5-(1-(trifluoromethyl)cyclopropyl)-1,3,4-thiadiazole], 7.68; that for `CCc1c(-c2nnc(C3(C(F)(F)F)CC3)s2)nn(-c2ccc(Cl)cc2Cl)c1-c1ccc(Cl)cc1` [Example 500, 2-(5-(4-chlorophenyl)-1-(2,4-dichlorophenyl)-4-ethyl-1H-pyrazol-3-yl)-5-(1-(trifluoromethyl)cyclopropyl)-1,3,4-thiadiazole], 7.63.
Take `CCc1c(-c2nnc(C3(c4ccccc4F)CC3)s2)nn(-c2ccc(Cl)cc2Cl)c1-c1ccc(Cl)cc1` [Example 501, 2-(5-(4-chlorophenyl)-1-(2,4-dichlorophenyl)-4-ethyl-1H-pyrazol-3-yl)-5-(1-(2-fluorophenyl)cyclopropyl)-1,3,4-thiadiazole]: the pIC50 is 8.17.

By IC50 is commonly meant the midpoint of a concentration-inhibition curve. A higher IC50 goes with weaker potency in that assay. The pIC50 is the negative decadic logarithm of the IC50, by convention in mol/L.
